This note sets out measurements from ChEMBL document CHEMBL4619754, “Discovery of novel, potent, and orally bioavailable pyrido[2,3-d][1]benzazepin-6-one antagonists for parathyroid hormone receptor 1” (Bioorg Med Chem, 2020).

A short description of data set [1]: Metabolic stability in rat liver microsomes assessed as parent compound remaining at 1 uM in presence of NADPH generating system measured after 20 mins by LC-MS/MS analysis. The conditions noted are these: read-out: Stability. It is filed as ADME, Microsome. For orientation: Liver microsomes are vesicles of endoplasmic reticulum, rich in cytochrome P450 enzymes.

Data set [2] in a line: Drug degradation in HCL/CH2Cl2 by TLC analysis. It is filed as physicochemical. The conditions noted are these: read-out: Drug degradation.
A short description of data set [3]: Solubility of the compound in JP1 fluid at pH 1.2. Format: physicochemical.
The nature of data set [4]: Solubility of the compound in JP2 buffer at pH 6.8. It is filed as physicochemical.
Data set [5] addresses T1, Parathyroid hormone/parathyroid hormone-related peptide receptor (Homo sapiens, UniProt Q03431).
T1 sequence (Q03431 whole entry): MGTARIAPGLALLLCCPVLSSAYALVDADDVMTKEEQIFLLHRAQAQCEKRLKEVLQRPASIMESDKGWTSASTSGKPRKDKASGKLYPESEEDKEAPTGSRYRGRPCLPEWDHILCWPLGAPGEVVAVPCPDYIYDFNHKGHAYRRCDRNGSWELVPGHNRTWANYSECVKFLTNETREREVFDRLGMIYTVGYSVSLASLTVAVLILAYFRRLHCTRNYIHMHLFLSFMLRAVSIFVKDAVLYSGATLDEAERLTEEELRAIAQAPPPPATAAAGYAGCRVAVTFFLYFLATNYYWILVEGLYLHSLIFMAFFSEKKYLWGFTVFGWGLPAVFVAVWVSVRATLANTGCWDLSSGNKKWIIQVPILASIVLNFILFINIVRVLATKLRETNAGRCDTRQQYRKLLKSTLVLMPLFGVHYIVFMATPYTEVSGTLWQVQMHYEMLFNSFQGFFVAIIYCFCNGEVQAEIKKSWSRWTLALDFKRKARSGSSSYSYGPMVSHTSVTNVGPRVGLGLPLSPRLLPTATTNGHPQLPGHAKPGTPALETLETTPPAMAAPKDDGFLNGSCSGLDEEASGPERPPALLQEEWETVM
In words: Antagonist activity at PTHR1 (unknown origin) expressed in CHOK1 cells co-expressing Gs/Gq assessed as reduction in human PTH (1 to 34 residues)-induced cAMP level incubated for 30 mins. It is filed as functional, cell-based, CHO-K1. In general terms: Changes in cAMP serve as a functional read-out for many G protein-coupled receptors.

The next data set deals with T2, CYP1A2 (Homo sapiens, UniProt P05177).
T2 sequence (P05177 whole entry): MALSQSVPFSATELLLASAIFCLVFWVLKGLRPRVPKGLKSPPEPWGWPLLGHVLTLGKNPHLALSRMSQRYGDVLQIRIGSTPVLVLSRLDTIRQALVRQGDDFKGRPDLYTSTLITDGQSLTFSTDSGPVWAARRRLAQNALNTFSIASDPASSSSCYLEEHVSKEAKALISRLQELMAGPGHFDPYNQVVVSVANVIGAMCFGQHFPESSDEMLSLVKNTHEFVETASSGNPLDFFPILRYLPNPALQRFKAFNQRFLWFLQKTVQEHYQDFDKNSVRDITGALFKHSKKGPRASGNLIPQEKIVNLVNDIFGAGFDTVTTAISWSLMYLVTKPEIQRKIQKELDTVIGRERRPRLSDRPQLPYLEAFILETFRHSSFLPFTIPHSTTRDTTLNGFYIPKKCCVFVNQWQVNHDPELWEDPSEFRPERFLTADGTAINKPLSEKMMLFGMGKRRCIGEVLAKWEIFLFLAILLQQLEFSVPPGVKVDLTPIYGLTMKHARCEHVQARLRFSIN
In words: Inhibition of CYP1A2 (unknown origin) at 10 uM relative to control. Format: ADME.

The target of the next data set is T3, CYP2C8 (Homo sapiens, UniProt P10632).
T3 sequence (P10632 whole entry): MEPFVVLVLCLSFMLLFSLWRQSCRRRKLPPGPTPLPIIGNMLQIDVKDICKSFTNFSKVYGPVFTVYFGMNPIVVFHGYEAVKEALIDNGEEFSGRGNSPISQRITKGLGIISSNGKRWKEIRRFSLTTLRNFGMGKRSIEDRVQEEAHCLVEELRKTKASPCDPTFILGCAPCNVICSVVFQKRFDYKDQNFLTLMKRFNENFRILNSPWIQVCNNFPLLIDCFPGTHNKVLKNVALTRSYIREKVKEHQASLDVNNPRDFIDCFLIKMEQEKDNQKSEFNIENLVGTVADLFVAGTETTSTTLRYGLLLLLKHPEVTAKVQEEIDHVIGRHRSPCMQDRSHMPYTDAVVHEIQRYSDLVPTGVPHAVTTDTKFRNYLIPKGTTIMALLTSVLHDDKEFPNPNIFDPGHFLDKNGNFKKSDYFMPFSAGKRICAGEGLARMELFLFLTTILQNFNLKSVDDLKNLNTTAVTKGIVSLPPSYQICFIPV
As to the kind of experiment: Inhibition of CYP2C8 (unknown origin) at 10 uM relative to control. Format: ADME.

The target in the next data set is CYP2C9 (Homo sapiens, UniProt P11712). In words: Inhibition of CYP2C9 (unknown origin) at 10 uM relative to control. It is filed as ADME.
Sequence of CYP2C9 (P11712 whole entry): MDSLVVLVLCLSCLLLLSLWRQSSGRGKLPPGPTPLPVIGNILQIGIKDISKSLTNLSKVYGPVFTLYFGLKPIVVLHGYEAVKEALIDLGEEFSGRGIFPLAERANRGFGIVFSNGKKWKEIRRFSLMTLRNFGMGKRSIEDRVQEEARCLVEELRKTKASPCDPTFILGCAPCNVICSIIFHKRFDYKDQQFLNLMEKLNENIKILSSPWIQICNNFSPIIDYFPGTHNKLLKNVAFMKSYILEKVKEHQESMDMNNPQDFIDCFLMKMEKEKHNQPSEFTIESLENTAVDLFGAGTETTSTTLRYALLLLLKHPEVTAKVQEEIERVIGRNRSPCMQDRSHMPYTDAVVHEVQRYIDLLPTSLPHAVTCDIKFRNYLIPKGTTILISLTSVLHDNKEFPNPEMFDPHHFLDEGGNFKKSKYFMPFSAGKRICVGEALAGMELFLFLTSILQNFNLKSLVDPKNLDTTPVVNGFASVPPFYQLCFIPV
The next data set has as its target CYP2C19 (Homo sapiens, UniProt P33261). As to the kind of experiment: Inhibition of CYP2C19 (unknown origin) at 10 uM relative to control. Format: ADME.
The target of the next data set is CYP2D6 (Homo sapiens, UniProt P10635). In words: Inhibition of CYP2D6 (unknown origin) at 10 uM relative to control. It is filed as ADME.
Sequence of CYP2D6 (P10635 whole entry): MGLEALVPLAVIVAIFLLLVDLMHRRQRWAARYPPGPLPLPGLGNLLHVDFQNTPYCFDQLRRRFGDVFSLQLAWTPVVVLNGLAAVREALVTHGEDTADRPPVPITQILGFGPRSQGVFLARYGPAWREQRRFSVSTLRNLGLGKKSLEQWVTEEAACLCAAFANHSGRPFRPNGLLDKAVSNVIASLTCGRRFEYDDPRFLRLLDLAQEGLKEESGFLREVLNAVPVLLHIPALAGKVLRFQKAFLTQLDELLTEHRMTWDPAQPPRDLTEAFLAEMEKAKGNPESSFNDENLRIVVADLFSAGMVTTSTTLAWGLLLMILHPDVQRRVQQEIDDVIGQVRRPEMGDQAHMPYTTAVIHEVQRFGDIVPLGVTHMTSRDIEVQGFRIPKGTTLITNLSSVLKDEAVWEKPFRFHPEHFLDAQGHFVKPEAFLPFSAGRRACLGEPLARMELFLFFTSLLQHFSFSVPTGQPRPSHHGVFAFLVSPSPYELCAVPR
A further data set has as its target CYP3A4 (Homo sapiens, UniProt P08684). As to the kind of experiment: Inhibition of CYP3A4 (unknown origin) at 10 uM relative to control. Format: ADME.
A short description of data set [6]: 1-Octanol/PBS buffer distribution coefficient, log D of the compound at pH 7.4. Format: physicochemical.
Data set [7] is described as follows: Plasma clearance in Sprague-Dawley rat at 1 mg/kg, iv by LC-MS/MS analysis. It is filed as ADME, organism-based.
Data set [8] in a line: Volume of distribution at steady state in Sprague-Dawley rat at 1 mg/kg, iv by LC-MS/MS analysis. The conditions noted are these: in vivo, read-out: Vdss. Format: ADME, organism-based.
Data set [9] in a line: Elimination half life in Sprague-Dawley rat at 5 mg/kg, po by LC-MS/MS analysis. Format: ADME, organism-based. The conditions noted are these: in vivo, read-out: BBB (converted).
A short description of data set [10]: AUClast in Sprague-Dawley rat at 5 mg/kg, po by LC-MS/MS analysis. Format: ADME, organism-based. More on the design: dose 5 mg/kg, time 0 - last, route oral. The conditions noted are these: in vivo.
Data set [11] can be described thus: Oral bioavailability in Sprague-Dawley rat at 10 mg/kg by LC-MS/MS analysis. It is filed as ADME, organism-based. The settings on record: in vivo.

Values after ≈ are worked out from the molar mass of the structure shown.

Sequence of CYP2C19 (P33261 whole entry): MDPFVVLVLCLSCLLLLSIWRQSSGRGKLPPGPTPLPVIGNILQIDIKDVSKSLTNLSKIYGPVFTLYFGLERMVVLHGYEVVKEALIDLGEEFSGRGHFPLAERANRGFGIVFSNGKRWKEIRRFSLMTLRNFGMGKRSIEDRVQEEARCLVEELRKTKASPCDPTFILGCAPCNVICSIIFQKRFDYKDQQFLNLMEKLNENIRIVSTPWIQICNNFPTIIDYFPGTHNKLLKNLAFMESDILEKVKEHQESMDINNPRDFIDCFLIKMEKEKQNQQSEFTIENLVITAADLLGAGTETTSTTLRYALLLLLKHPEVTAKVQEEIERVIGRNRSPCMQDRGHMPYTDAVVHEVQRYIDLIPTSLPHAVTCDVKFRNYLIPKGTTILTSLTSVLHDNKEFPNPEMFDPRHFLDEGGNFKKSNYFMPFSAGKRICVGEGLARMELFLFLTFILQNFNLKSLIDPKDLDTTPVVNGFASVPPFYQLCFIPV
Sequence of CYP3A4 (P08684 whole entry): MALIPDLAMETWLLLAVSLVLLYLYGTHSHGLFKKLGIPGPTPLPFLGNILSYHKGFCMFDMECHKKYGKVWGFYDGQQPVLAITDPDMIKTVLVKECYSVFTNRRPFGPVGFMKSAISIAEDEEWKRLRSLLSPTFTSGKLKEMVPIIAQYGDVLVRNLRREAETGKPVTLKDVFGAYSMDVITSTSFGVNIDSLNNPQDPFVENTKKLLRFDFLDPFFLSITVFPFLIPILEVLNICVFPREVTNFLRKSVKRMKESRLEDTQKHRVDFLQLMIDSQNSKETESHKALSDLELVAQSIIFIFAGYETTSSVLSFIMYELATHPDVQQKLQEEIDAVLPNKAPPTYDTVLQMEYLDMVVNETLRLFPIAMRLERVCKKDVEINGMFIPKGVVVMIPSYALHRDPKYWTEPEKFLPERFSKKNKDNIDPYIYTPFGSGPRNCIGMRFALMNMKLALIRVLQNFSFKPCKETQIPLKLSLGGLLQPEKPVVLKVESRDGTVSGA

`CC1(C)N=C(C2CCCCC2)c2ccc(C#N)cc2N(c2ccc(NCCNC3CCOCC3)cc2)C1=O`: in [1], the remaining at 20 min, 1 µM turned out to be 28%. Also, the degraded in data set [2] was 100%.

As usually defined, the solubility is the dissolved amount per volume that the medium holds. In the case of `CC1(C)C(=O)N(c2ccc(NCCNC3CCOCC3)cc2)c2cc(F)ccc2-c2cc(Cl)cnc21`, in data set [1], the remaining at 20 min, 1 µM was 42%. Further, the solubility came to 960 µg/mL (≈ 1890 µM) in data set [3] and 380 µg/mL (≈ 747 µM) in [4].

By IC50 is commonly meant the point on the concentration scale where inhibition reaches its midpoint. With `CC1(C)C=C(C2CCCCC2)c2ccc(C#N)cc2N(c2ccc(NCCNC3CCOCC3)cc2)C1=O`, the IC50 in data set [5] is 8.8 µM. Further, in data set [1], the remaining at 20 min, 1 µM came out at 97%.

Take `CC1(C)C(=O)N(c2ccc(NCCNC3CCOCC3)cc2)c2cc(Cl)ccc2-c2cc(F)cnc21`: the remaining at 20 min, 1 µM in data set [1] amounted to 19%. Further, the solubility in data set [3] was found to be 920 µg/mL (≈ 1810 µM); in data set [4], 470 µg/mL (≈ 923 µM).

`CC1(C)C(=O)N(c2ccc(NCCNC3CCOCC3)cc2)c2cc(Cl)ccc2-c2cc(Cl)ccc21`: the remaining at 20 min, 1 µM in data set [1] is 75%. Also, the solubility in data set [3] amounted to 36 µg/mL (≈ 68.6 µM); in [4], 4.7 µg/mL (≈ 8.96 µM).

For `CC(C)N1N=C(C2CCCCC2)c2ccc(Cl)cc2N(c2ccc(NCCNC3CCOCC3)cn2)C1=O`, the IC50 in data set [5] was found to be 4.37 µM.

Regarding `COc1ccc2c(c1)N(c1ccc(NCCNC3CCOCC3)cc1)C(=O)C(C)(C)c1ncc(Cl)cc1-2`, the remaining at 20 min, 1 µM in [1] turned out to be 59%. For the same compound, the values for the solubility in [3] and in [4] were 250 µg/mL (≈ 480 µM) and 3.8 µg/mL (≈ 7.29 µM), respectively.

As for `CC1(C)C(=O)N(c2ccc(NCCNC3CCOCC3)cc2)c2cc(C#N)ccc2-c2cc(Cl)cnc21`, the remaining at 20 min, 1 µM in data set [1] is 34%. In addition, the results for the solubility in data set [3] and in data set [4] were 990 µg/mL (≈ 1920 µM) and 720 µg/mL (≈ 1400 µM), respectively.

In the case of `Cc1ccc2c(c1)N(c1ccc(NCCNC3CCOCC3)cc1)C(=O)C(C)(C)c1ncc(Cl)cc1-2`, the remaining at 20 min, 1 µM in [1] was determined as 52%. In addition, the figures for the solubility in data set [3] and in data set [4] were 870 µg/mL (≈ 1720 µM) and 24 µg/mL (≈ 47.5 µM), respectively.

On to `CC1(C)C=C(C2CCCCC2)c2ccc(Cl)cc2N(c2ccc(NCCNC3CCOCC3)cc2)C1=O`, for which, in [5], the IC50 was 0.97 µM. Also, the remaining at 20 min, 1 µM in [1] is 58%.

The term inhibition denotes the share of the control response that was lost under treatment. A high value points to strong suppression. The logD is the decadic logarithm of the distribution of all forms, ionised or not, between an organic phase and buffer at a given pH. Read a low logD as a more hydrophilic compound. Usually clearance stands for the volume of plasma or blood freed of the substance per unit of time. A word on the AUC(0-t): it is exposure summed from dosing to a finite time, without extrapolation to infinity. Read a low AUC(0-t) as low exposure. As usually defined, the bioavailability is dose-corrected exposure relative to a reference, in per cent. A low value points to little systemic uptake. Take `CC1(C)C(=O)N(c2ccc(NCCNC3CCOCC3)cc2)c2cc(Cl)ccc2-c2cc(Cl)cnc21`: the remaining at 20 min, 1 µM in data set [1] was found to be 65%. The solubility in [3] was 570 µg/mL (≈ 1080 µM); in [4], 77 µg/mL (≈ 147 µM). For the same compound, the inhibition at 10 µM on CYP1A2, against CYP2C8, against CYP2C9, against CYP2C19, on CYP2D6 and against CYP3A4 was below 50% each time. In data set [6], this compound displayed a logD of 3.5. For the same compound, the clearance in data set [7] was determined as 39 mL/min/kg. Also, the Vd in data set [8] is 29.4 L/kg. Moreover, the half-life in data set [9] was 13.1 h. The AUC(0-t) in data set [10] stood at 2500 ng·h/mL. In [11], this compound had a bioavailability of 61%.

For the compound `Cc1cnc2c(c1)-c1ccc(Cl)cc1N(c1ccc(NCCNC3CCOCC3)cc1)C(=O)C2(C)C`, the remaining at 20 min, 1 µM in data set [1] came to 62%. Further, the solubility in [3] is above 980 µg/mL; in data set [4], 510 µg/mL (≈ 1010 µM).

`CC1(C)C(=O)N(c2ccc(NCCNC3CCOCC3)cc2)c2cc(Cl)ccc2-c2ccccc21`: in data set [5], the IC50 was found to be 3.2 µM. In data set [1], the remaining at 20 min, 1 µM is 21%. Besides, the solubility in data set [3] came out at 83 µg/mL (≈ 169 µM); in data set [4], 9.1 µg/mL (≈ 18.6 µM).
